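Compound exposure: 48 hours, 5 concentrations, 96-well plates. The concentration for full growth arrest is given as TGI.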
Legend:
Assay in all cases: inhibition of tumour cell growth, NCI panel, 48 h
786-0 renal = tested on: 786-0 renal
HOP-92 NSCLC = tested on: HOP-92 NSCLC
K-562 leukemia = tested on: K-562 leukemia
M14 melanoma = tested on: M14 melanoma
RPMI-8226 leukemia = tested on: RPMI-8226 leukemia
SF-268 CNS = tested on: SF-268 CNS
SK-MEL-28 melanoma = tested on: SK-MEL-28 melanoma
SK-MEL-5 melanoma = tested on: SK-MEL-5 melanoma
SN12C renal = tested on: SN12C renal
T-47D breast = tested on: T-47D breast

Compound | TGI (786-0 renal) | TGI (HOP-92 NSCLC) | TGI (K-562 leukemia) | TGI (M14 melanoma) | TGI (RPMI-8226 leukemia) | TGI (SF-268 CNS) | TGI (SK-MEL-28 melanoma) | TGI (SK-MEL-5 melanoma) | TGI (SN12C renal) | TGI (T-47D breast)
CC(=O)Nc1ccc(CNc2cc(=O)[nH]c(=O)[nH]2)cc1 | > 100 µM | > 100 µM | > 100 µM | > 100 µM | > 100 µM | > 100 µM | > 100 µM | > 100 µM | > 100 µM | > 100 µM
O=C(CN1CCN(C(=O)OCc2ccccc2)CCN(CC(=O)N2CCCCC2)CCN(C(=O)OCc2ccccc2)CC1)N1CCCCC1 | > 45.9 µM | 27.2 µM | 32.7 µM | 25 µM | 37.3 µM | 31.8 µM | 27.9 µM | 19.2 µM | 26.8 µM | 38.8 µM
COC(=O)C(CCC1C=CCC1)N=Cc1ccccc1 (stereo not given) | > 100 µM | > 100 µM | > 100 µM | > 100 µM | 84.7 µM | > 100 µM | > 100 µM | > 100 µM | > 100 µM | > 100 µM
NC1CC(=O)c2csc(Br)c21 (stereo not given) | > 50.7 µM | 24.5 µM | > 82.4 µM | > 53.6 µM | 34.2 µM | 44.1 µM | 37.9 µM | > 59.2 µM | > 44.3 µM | > 59.3 µM
Cc1ccc2c(c1)NC(=O)CCSSCCC(=O)N2 | > 100 µM | > 100 µM | > 100 µM | > 100 µM | > 100 µM | > 100 µM | > 100 µM | > 100 µM | > 100 µM | > 100 µM
CC(=O)O[C@H]1C[C@]2(C)C(CCC3O[C@@]32C)[C@@]2(CC(c3ccoc3)OC2O)[C@@H]1C (stereo not given in full) | > 100 µM | > 100 µM | > 100 µM | > 100 µM | 81.1 µM | > 100 µM | > 100 µM | > 100 µM | > 100 µM | > 100 µM
CC(=O)Oc1ccc2c(c1)c1c(=O)oc(N(C)C)nc1n2Cc1ccccc1 | > 100 µM | > 100 µM | > 100 µM | > 100 µM | > 100 µM | > 100 µM | > 100 µM | > 100 µM | > 100 µM | > 92.9 µM
CC(=O)Nc1ncc(Sc2ccccc2C(=O)O)s1 | > 100 µM | > 100 µM | > 100 µM | > 100 µM | > 100 µM | > 100 µM | > 100 µM | > 100 µM | > 100 µM | > 100 µM
O=C1c2cc3ccccc3cc2C2(c3ccc(Cl)cc3)N[C@H]3CCCC[C@@H]3N12 (stereo not given in full) | 23.3 µM | 98.5 µM | > 100 µM | 8.65 µM | > 100 µM | 39 µM | 28.1 µM | 42.8 µM | 43.8 µM | 52.7 µM
CN1C(c2ccccc2)=CC(=O)C(O)=C(c2ccccc2)S1(=O)=O | > 100 µM | > 100 µM | > 100 µM | > 100 µM | > 100 µM | > 100 µM | > 100 µM | > 100 µM | > 100 µM | > 100 µM
COc1ccc(/C=C2\CSC/C(=C\c3ccc(OC)c(OC)c3OC)C2=O)c(OC)c1OC | 48.1 µM | 96.1 µM | > 100 µM | 40.2 µM | 67.3 µM | > 100 µM | > 100 µM | 88.6 µM | 78.2 µM | > 100 µM
COC(=O)C1=Nc2c(C)nn(-c3ccccc3)c2N=C(c2ccc(C)cc2)C1 | > 10 µM | > 10 µM | > 10 µM | > 10 µM | > 10 µM | > 10 µM | > 10 µM | > 10 µM | > 10 µM | > 10 µM
CC(C)CCC1(O)O[C@H]2C[C@H]3[C@@H]4CCC5CC(=O)C=C[C@]5(C)[C@H]4CC[C@]3(C)[C@H]2[C@@H]1C (stereo not given in full) | 25.4 µM | 16 µM | 19.3 µM | 29.8 µM | 21.4 µM | 28.2 µM | 25 µM | 26.7 µM | 28 µM | 25.6 µM
O=C1C2C=CC1C1C(=O)OC(=O)C21 (stereo not given) | > 100 µM | > 100 µM | > 100 µM | > 100 µM | > 100 µM | > 100 µM | > 100 µM | > 100 µM | > 100 µM | > 100 µM
